According to PMC8804135 (Neurotherapeutics, 2021):
Numbered stars: 1 amine (or outer) side, 2 acyl side, 3 side chain; on linkers, the order of the positions; unused ones are H or OH. Bridge positions count the residues as written; N and C are the ends. Square brackets hold non-standard residues; d marks the D form. Ends that are not written are not given here. Peptide text beside a SMILES is read from it. dAbu(3S-yl) = C[C@@H]([C@@H](N[*:1])C(=O)[*:2])[*:3]; pGlu = O=C1CC[C@@H](C(=O)O)N1

Key:
Type in all cases: cell-based
[1] = target: T1, GAL2R (Homo sapiens, UniProt O43603); test: Fluo-4 Direct calcium assay (Ca efflux) in HEK293 cells overexpressing GAL2R; conditions: Table 3; HEK293 cells stably overexpressing GAL2R; Fluo-4, from 10 µM; (average) ratio, (n) in cell = number of assays; NA = ratio above 1000
T1 sequence (O43603 1-387): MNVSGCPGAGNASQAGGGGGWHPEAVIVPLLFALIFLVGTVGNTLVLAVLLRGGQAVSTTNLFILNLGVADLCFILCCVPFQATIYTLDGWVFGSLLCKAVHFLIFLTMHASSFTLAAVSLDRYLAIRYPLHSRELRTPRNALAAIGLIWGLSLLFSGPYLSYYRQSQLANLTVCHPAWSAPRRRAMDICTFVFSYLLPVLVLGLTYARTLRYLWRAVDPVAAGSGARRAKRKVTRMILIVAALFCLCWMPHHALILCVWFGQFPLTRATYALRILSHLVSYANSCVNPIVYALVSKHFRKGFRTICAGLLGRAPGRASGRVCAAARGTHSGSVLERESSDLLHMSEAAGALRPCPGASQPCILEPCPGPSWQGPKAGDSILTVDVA
Experimental: Calcium efflux was measured by using a Fluo-4 Direct Calcium Assay purchased from Thermo Fisher Scientific. HEK293 cells with stable overexpression of GAL2R (HEKR2) (kindly provided by Harald Dargatz, Molecular, Cellular and Pharmacobiology Section, Institute of Pharmaceutical Biology, University of Bonn, 53,115 Bonn, Germany) were used for analysis of the lanthipeptides. HEKR2 cells were seeded in a 96-well plate and grown overnight in DMEM supplemented with 10% FBS, 1% penicillin–streptomycin, 100 µg/ml Normocin, and 500 µg/ml G418 at 37 °C, 5% CO2 in a humidified incubator.
The next day, when the cells were nearly confluent, an equal amount of 2 × Fluo-4 Direct™ calcium reagent loading solution, containing 5 mM probenecid, was added to the wells, and the plate was incubated for 1 h at 37 °C. A serial 3 × dilution of the agonist compound in water was made, and 10 µl of the serial dilutions was applied to the cells in duplicate. The starting concentration of agonist in the assay was 10 µM. After 1–2 h of incubation at room temperature, the fluorescence was measured with excitation at 485/20 nm and emission at 528/20 nm with a Synergy HT Biotek reader.

[2] = target: T2, GAL1R (Homo sapiens, UniProt P47211); test: PathHunter eXpress β-arrestin recruitment assay, GAL1R; parameters: expressed in transfected cells; conditions: Table 3; CHO-K1 cells co-expressing GAL1R and β-arrestin 2; 10 µM to 5 nM; (average) ratio, (n) in cell = number of assays; NA = ratio above 1000
T2 sequence (P47211 1-349): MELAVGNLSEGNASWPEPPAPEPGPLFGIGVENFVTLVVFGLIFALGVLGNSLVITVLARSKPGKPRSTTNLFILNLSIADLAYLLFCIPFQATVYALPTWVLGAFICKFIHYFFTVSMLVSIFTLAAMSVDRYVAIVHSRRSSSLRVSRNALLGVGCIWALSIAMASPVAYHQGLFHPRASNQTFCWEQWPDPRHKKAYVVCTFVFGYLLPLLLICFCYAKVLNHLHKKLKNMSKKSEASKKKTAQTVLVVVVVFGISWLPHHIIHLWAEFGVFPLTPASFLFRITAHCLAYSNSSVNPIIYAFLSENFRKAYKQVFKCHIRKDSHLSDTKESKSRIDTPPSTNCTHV
Experimental: (§1) To evaluate the ability of lanthipeptides to recruit ß-arrestins via GAL1R or via GAL2R, we used the PathHunter® eXpress GAL1R, CHO-K1, β-arrestin GPCR Assay and the PathHunter® eXpress GAL2R, CHO-K1, β-arrestin, GPCR Assay from Eurofins-DiscoverX. The assays were performed according to the manufacturer’s instructions. Briefly, for one assay, CHO-K1 cells co-expressing GAL1R or GAL2R and β-arrestin (isoform 2) were diluted in AssayComplete™ Cell Plating Reagent, and 100 µl was seeded into each well of a 96-well plate. The plate was incubated at 37 °C, 5% CO2 in a humidified incubator. A serial 3 × dilution of the lanthipeptides in water was made (10 µM to 5 nM). After 48 h of incubation, 10 µl of the serial dilutions was applied to the cells in duplicate. The agonists were incubated for 90 min at 37 °C. Next, 55 µL of Working Detection Solution was added, and after 1 h of incubation at room temperature in the dark, the chemiluminescent signal was read with a Synergy HT Biotek reader.

[3] = target: T2, GAL1R; test: cAMP Hunter eXpress GAL1R CHO-K1 GPCR assay (inhibition of forskolin-induced cAMP); parameters: expressed in transfected cells; conditions: Table 3; CHO-K1 cells expressing GAL1R; 20 µM forskolin; 10 µM to 5 nM; (average) ratio, (n) in cell = number of assays; NA = ratio above 1000
Experimental: To evaluate the ability of lanthipeptides to […] via GAL1R signaling, we used the cAMP Hunter™ eXpress GAL1R CHO-K1 GPCR Assay from Eurofins-DiscoverX. The assay was performed according to the manufacturer’s instructions. Briefly, for one assay, CHO-K1 cells expressing GAL1R were diluted in AssayComplete™ Cell Plating 2 Reagent, and 100 µl was seeded into each well of a 96-well plate. The plate was incubated at 37 °C, 5% CO2 in a humidified incubator. After 24 h of incubation, the media was aspirated, and 45 µl cell assay buffer/antibody mixture was added to all wells. […] Fifteen µl of the serial dilutions was applied in duplicates to the cells. The concentration of forskolin in the assay was 20 µM. The agonists were incubated for 30 min at 37 °C. Next, 15 µL Antibody Solution and 60 μL cAMP Working Detection Solution were added, and the plate was incubated for 1 h in the dark at room temperature. Finally, 60 μL cAMP Solution A was added and, after 3 h of incubation in the dark at room temperature, the chemiluminescent signal was read with a Synergy HT Biotek reader.

[4] = target: T1, GAL2R; test: PathHunter eXpress β-arrestin recruitment assay, GAL2R; parameters: expressed in transfected cells; conditions: Table 3; CHO-K1 cells co-expressing GAL2R and β-arrestin 2; 10 µM to 5 nM; (average) ratio, (n) in cell = number of assays; NA = ratio above 1000
Experimental: as §1

[5] = target: T2, GAL1R; test: Label-free dynamic mass redistribution assay, SY5Y-R1 cells; parameters: expressed in transfected cells; conditions: GAL1R-expressing SH-SY5Y cells; 1.6 nM to 5 µM
Experimental: SH-SY5Y cells stably expressing low levels of either human GAL1R (SY5Y-R1) or GAL2R (SY5Y-R2) and HEK293 cells expressing human GAL3R (HEK-R3) were seeded in EnSpire LFC-[…] well plates (Perkin Elmer) at a concentration of 12,000 cells per well and cultured overnight at 37 °C and 5% CO2. The medium was aspired, and the cells were washed four times with Hank’s balanced salt solution (HBSS) (+ calcium, + magnesium) supplemented with HEPES (20 mM), and the final volume was adjusted to 30 µl per well. The plate was allowed to equilibrate to assay temperature for 1 h in the EnSpire multimode reader (Perkin Elmer). Galanin-(1–30) (GL Biochem) was dissolved and diluted in water. […] A baseline read was first generated by taking 4 measurements before ligands were added. The plate was measured between 30 and 70 repeats, and each treatment was performed in triplicate. […] EC50 values were calculated using Prism 8.2.0 (GraphPad Software Inc.). The values are provided as means of all independent experiments.

Molecule	EC50 ratios to Gal-(1-15), GAL2R Ca-efflux [1]	EC50 ratios to Gal-(1-15), GAL1R ß-Arrestin [2]	EC50 ratios to Gal-(1-15), GAL1R cAMP [3]	EC50 ratios to Gal-(1-15), GAL2R ß-Arrestin [4]	Stimulation of GAL1R, DMR in SY5YR1 cells [5]
GWNLNAAGYLLGATAVC (also: sidechain bridge or staple (positions not given here)) [Variant M90, methyllanthionine-containing galanin variant produced in L. lactis]	4.6 (1)	2.7 (1)	4.9 (1)	3.2 (1)	–
GWNLNAAGYLLGATAVCNHR (also: sidechain bridge or staple (positions not given here)) [Variant M51, methyllanthionine-containing galanin variant produced in L. lactis]	2.9 (2)	1.5 (2)	3.6 (1)	0.6 (2)	–
GWNLNAAGYLLGPTAVC (also: sidechain bridge or staple (positions not given here)) [Variant M85, methyllanthionine-containing galanin variant produced in L. lactis]	4.7 (1)	18.0 (1)	11.6 (1)	6.2 (1)	–
CC(C)C[C@H](NC(=O)[C@H](CC(C)C)NC(=O)[C@H](Cc1ccc(O)cc1)NC(=O)CNC(=O)[C@H](C)NC(=O)[C@H](C)NC(=O)[C@H](CC(N)=O)NC(=O)[C@H](CC(C)C)NC(=O)[C@H](CC(N)=O)NC(=O)[C@H](Cc1c[nH]c2ccccc12)NC(=O)[C@@H]1CCC(=O)N1)C(=O)N[C@@H](C)C(=O)N[C@H]1C(=O)N[C@@H](Cc2c[nH]cn2)C(=O)N[C@@H](C)C(=O)N[C@H](C(=O)NCC(=O)N[C@@H](CC(N)=O)C(=O)N[C@@H](Cc2c[nH]cn2)C(=O)N[C@@H](CCCNC(=N)N)C(=O)O)CS[C@H]1C [Variant M50b] ([pGlu]WNLNAAGYLLA[dAbu(3S-yl)]HACGNHR-OH; thioether 13-16; C-terminus assumed)	2.8 (3)	NA (1) (NA is not active; ratios above 1000 were considered to be not active)	NA (2) (NA is not active; ratios above 1000 were considered to be not active)	4.7 (3)	stimulate GAL2R only, not GAL1R
[pGlu]WNLNAAGYLLGPTAVC (also: sidechain bridge or staple (positions not given here)) [Variant M87, pyroglutamate- and methyllanthionine-containing galanin variant]	1.9 (2)	260 (1)	NA (1) (NA is not active; ratios above 1000 were considered to be not active)	4.8 (1)	–
[pGlu]WNLNAAGYLLGPHTVGCHR (also: sidechain bridge or staple (positions not given here)) [Variant M83, pyroglutamate- and methyllanthionine-containing galanin variant]	7.3 (1)	123 (1)	NA (1) (NA is not active; ratios above 1000 were considered to be not active)	78 (1)	–
GWNLNAAGYLLATHACG (also: sidechain bridge or staple (positions not given here)) [Variant M89, methyllanthionine-containing galanin variant produced in L. lactis]	2.7 (1)	148 (1)	NA (1) (NA is not active; ratios above 1000 were considered to be not active)	3 (1)	–
GWNLNAAGYLLATHACGNHR (also: sidechain bridge or staple (positions not given here)) [Variant M50, methyllanthionine-containing galanin variant produced in L. lactis]	3.5 (2)	3.8 (1)	12.5 (1)	0.5 (1)	–
